Measurements taken from patent publication US4727076A, “Tetrahydroquinolinylalkyl amino pyridones and ring homologues thereof, useful as histamine-H1 -receptor antagonists” (Smith Kline & French Laboratories Ltd., priority 1986, dated 1988).

Tested on: histamine H1-receptor
Test: inhibition of histamine induced bronchoconstriction in vivo
Design: species or system guinea pig
Details: anaesthetised guinea pigs, intravenous injection, histamine dose-response curve 5 minutes later
Method: Guinea pigs of either sex are anaesthetised by intraperitoneal injection of sodium pentobarbitone, 90 mg/kg. The trachea is cannulated. The animal is respired artificially with a fixed volume of air just adequate to inflate the lungs. The pressure needed to inflate the lungs is monitored from the respiratory system using a low pressure transducer. Intravenous injection of histamine causes dose-dependent increases in the pressure to inflate the lungs reflecting the bronchoconstrictor action of histamine. Responses to histamine can be antagonised using histamine H1 -receptor antagonists.
Dose-response curves to histamine are established at 20, 40, 80, 160 and 320 nmols/kg. Antagonists are then administered by intravenous injection and 5 minutes later a new histamine dose-response curve is established increasing the doses of histamine as necessary. The effect of the antagonist can be quantified by the displacement, to the right, of the histamine dose-response curve, expressed as a dose-ratio. A series of doses of antagonists may be given to each animal allowing calculation of dose-ratios for each dose of antagonist. For the compounds of Examples 1, 2 and 4, the doses (μmol/kg) required to give a dose ratio of 11 ((DR-1)=10) are 0.022, 0.06 and 0.0048 respectively.

| Compound | dose required to give a dose ratio of 11 ((DR-1)=10) |
| --- | --- |
| O=c1nc(NCCCC2CCCc3cccnc32)[nH]cc1Cc1cc[n+]([O-])cc1 (stereo not drawn) [Example 1, 2-[3-(5,6,7,8-Tetrahydroquinol-8-yl)propylamino]-5-[1-oxopyrid-4-ylmethyl]-4(1H)-pyrimidone] | 0.022 µmol/kg |
| Cc1ccc(Cc2c[nH]c(NCCCC3CCCc4cccnc43)nc2=O)cn1 (stereo not drawn) [Example 2, 2-[3-(5,6,7,8-Tetrahydroquinol-8-yl)propylamino]-5-(6-methylpyrid-3-ylmethyl)-4(1H)-pyrimidone] | 0.06 µmol/kg |
| O=c1nc(NCCCC2CCCc3cccnc32)[nH]cc1Cc1ccc(CO)nc1 (stereo not drawn) [Example 4, 2-[3-(5,6,7,8-Tetrahydroquinol-8-yl)propylamino]-5-(6-hydroxymethylpyrid-3-ylmethyl)-4(1H)-pyrimidone] | 0.0048 µmol/kg |
